This is an account of results in patent US9078871B2, “Estrogen receptor modulators and uses thereof” (SERAGON PHARMACEUTICALS, INC., priority 2010, dated 2015).

The IC50 is the concentration needed to halve the response being measured. A higher IC50 goes with a need for much substance.

Type in all cases: cell-based
The test system of experiment [1] is MCF-7 cells. Description: Breast Cancer Cell Viability Assay (MCF7 Viability Assay). The conditions noted are these: 5 days' compound exposure, CellTiter-Glo; for IC50: Homo sapiens, MCF7, 120 h. In a few lines: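 MCF-7 cells, 320 per well in RPMI with 10% FBS and 20 mM HEPES, adhered overnight, then exposed 5 days to an eleven-point semilog dilution (final 0.3–0.000003 μM). CellTiter-Glo luminescence; % viability relative to untreated cells after subtracting cell-free background.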
On the technique in general: In ATP-based viability assays light output follows the ATP content of the culture.

The target in experiment [2] is T1, ER-α (Homo sapiens, UniProt P03372).
T1 construct: endogenous in cells; host or cells: MCF-7
T1 sequence (P03372 1-595): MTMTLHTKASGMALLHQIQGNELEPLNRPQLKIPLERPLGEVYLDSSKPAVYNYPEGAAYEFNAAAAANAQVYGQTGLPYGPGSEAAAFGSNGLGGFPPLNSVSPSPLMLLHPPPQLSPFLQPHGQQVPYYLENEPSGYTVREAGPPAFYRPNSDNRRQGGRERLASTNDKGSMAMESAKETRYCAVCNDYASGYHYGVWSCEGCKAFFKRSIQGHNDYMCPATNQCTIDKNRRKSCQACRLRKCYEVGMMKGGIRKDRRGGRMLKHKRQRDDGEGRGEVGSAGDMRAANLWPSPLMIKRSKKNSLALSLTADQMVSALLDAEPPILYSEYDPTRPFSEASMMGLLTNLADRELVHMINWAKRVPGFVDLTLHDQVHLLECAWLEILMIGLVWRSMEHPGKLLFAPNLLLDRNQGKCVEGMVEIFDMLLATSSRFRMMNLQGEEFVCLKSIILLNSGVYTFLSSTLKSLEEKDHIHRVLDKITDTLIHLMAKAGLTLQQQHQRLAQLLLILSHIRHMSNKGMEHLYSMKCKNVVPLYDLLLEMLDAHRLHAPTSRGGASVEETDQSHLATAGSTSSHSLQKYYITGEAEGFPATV
Description: ER-α In Cell Western Assay (ER1D5). Conditions: MCF-7 cells, ER1D5 antibody, 4 or 24 hr post compound addition, read-out: ER In-Cell Western Assay (ER1D5); for Emax: MCF7, Max Response; for DC50: IC50. Put shortly: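 MCF-7 cells in RPMI with 10% charcoal-stripped FBS treated with 11-point semilog series (0.3–0.000003 μM final) for 4 or 24 h. Fixed cells stained with ER1D5 plus IRDye 800CW secondary and DRAQ5; ER level = 800/700 nm intensity ratio as % of untreated cells.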

Experiment [3] addresses T1, ER-α. The experiment in a line: ER-α in Cell Western Assay (SP1). The conditions noted are these: MCF-7 cells, SP1 rabbit monoclonal Ab, 4 or 24 hr post compound addition, read-out: ER In-Cell Western Assay (SP1); for Emax: MCF7, Max Response; for DC50: IC50. Put shortly: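 MCF-7 cells in charcoal-stripped FBS medium treated with 11-point semilog dilutions (0.3–0.000003 μM final) for 4 or 24 hr, then fixed and immunostained with SP1 anti-ER antibody. ER signal (800 nm) normalized to DRAQ5 DNA signal (700 nm) and expressed as % of untreated cells.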

For the compound `CC1=C(c2ccccc2C)C(c2ccc(OC[C@H](C)N3CC[C@@H](C)C3)cc2)Oc2ccc(O)cc21` (stereo partly drawn) [Example 56, 4-Methyl-2-(4-((S)-2-((R)-3-methylpyrrolidin-1-yl)propoxy)phenyl)-3-(o-tolyl)-2H-chromen-6-ol], in experiment [1], the “MCF7 Viability Assay Max Response” value is on record as “++ (++ = a single % value ≧50%)” and the IC50 was no more than 1 nM. Moreover, in experiment [2], the Emax was no less than 65% and the DC50 was no more than 1 nM. In experiment [3], the Emax fell in the range of 60 to 85% and the DC50 was no more than 1 nM.

Turning to `CC1=C(c2cccc(F)c2)C(c2ccc(OC[C@H](C)N3CC[C@@H](C)C3)cc2)Oc2ccc(O)cc21` (stereo partly drawn) [Example 32, 3-(3-Fluorophenyl)-4-methyl-2-(4-((S)-2-((R)-3-methylpyrrolidin-1-yl)propoxy)phenyl)-2H-chromen-6-ol], in experiment [1], the “MCF7 Viability Assay Max Response” value is “+ (+ = a single % value <50%)” and the IC50 is no more than 1 nM. In addition, in experiment [2], the Emax was no less than 65% and the DC50 is no more than 1 nM. Besides, in experiment [3], the Emax is no less than 85% and the DC50 was no more than 1 nM.

As for `CC1=C(c2cccc(O)c2)C(c2ccc(OCCN3CCC(C)(C)C3)cc2)Oc2ccc(O)cc21` (stereo not drawn) [Example 19, 2-(4-(2-(3,3-Dimethylpyrrolidin-1-yl)ethoxy)phenyl)-3-(3-hydroxyphenyl)-4-methyl-2H-chromen-6-ol], in experiment [1], the “MCF7 Viability Assay Max Response” value is “++ (++ = a single % value ≧50%)” and the IC50 is no more than 1 nM. Further, in experiment [2], the Emax is no less than 65% and the DC50 is no more than 1 nM. In addition, in experiment [3], the Emax lay in the range of 60 to 85% and the DC50 is no more than 1 nM.

`CC1=C(c2ccc(Br)cc2)C(c2ccc(OC[C@H](C)N3CC[C@@H](C)C3)cc2)Oc2ccc(O)cc21` (stereo partly drawn) [Example 54, 3-(4-Bromophenyl)-4-methyl-2-(4-((S)-2-((R)-3-methylpyrrolidin-1-yl)propoxy)phenyl)-2H-chromen-6-ol]: in experiment [1], the “MCF7 Viability Assay Max Response” value is given as “++ (++ = a single % value ≧50%)” and the IC50 was greater than 1 nM. For the same compound, in experiment [2], the Emax is no less than 65% and the DC50 was greater than 1 nM. Moreover, in experiment [3], the Emax is 60 to 85% and the DC50 was greater than 1 nM.

As to `CC1=C(c2cccc(O)c2)C(c2ccc(OC[C@H](C)N3CCCCC3)cc2)Oc2ccc(O)cc21` (stereo partly drawn) [Example 1, 3-(3-Hydroxyphenyl)-4-methyl-2-(4-((S)-2-(piperidin-1-yl)propoxy)phenyl)-2H-chromen-6-ol], in experiment [1], the “MCF7 Viability Assay Max Response” value is recorded as “++ (++ = a single % value ≧50%)” and the IC50 is no more than 1 nM. In experiment [2], the Emax was in the range of 40 to 65% and the DC50 is no more than 1 nM. In addition, in experiment [3], the Emax is 60 to 85% and the DC50 is no more than 1 nM.

Consider `CC1=C(c2ccc(C)c(O)c2)C(c2ccc(OC[C@H](C)N3CC[C@@H](C)C3)cc2)Oc2ccc(O)cc21` (stereo partly drawn) [Example 39, 3-(3-Hydroxy-4-methylphenyl)-4-methyl-2-(4-((S)-2-((R)-3-methylpyrrolidin-1-yl)propoxy)phenyl)-2H-chromen-6-ol], for which, in experiment [1], the “MCF7 Viability Assay Max Response” value is “++ (++ = a single % value ≧50%)” and the half-maximal inhibitory concentration (IC50) was greater than 1 nM. Also, in experiment [2], the Emax is no less than 65% and the DC50 was greater than 1 nM. In addition, in experiment [3], the Emax fell in the range of 60 to 85% and the DC50 is greater than 1 nM.

For `CC1=C(c2ccc(F)c(O)c2)C(c2ccc(OC[C@H](C)N3CC[C@@H](C)C3)cc2)Oc2ccc(O)cc21` (stereo partly drawn) [Example 57, 3-(4-Fluoro-3-hydroxyphenyl)-4-methyl-2-(4-((S)-2-((R)-3-methylpyrrolidin-1-yl)propoxy)phenyl)-2H-chromen-6-ol], in experiment [1], the “MCF7 Viability Assay Max Response” value is “++ (++ = a single % value ≧50%)” and the IC50 is no more than 1 nM. Also, in experiment [2], the Emax was no less than 65% and the DC50 is no more than 1 nM. Besides, in experiment [3], the Emax was no less than 85% and the DC50 was no more than 1 nM.

`C#Cc1ccc(C2=C(C)c3cc(O)ccc3OC2c2ccc(OC[C@H](C)N3CC[C@@H](C)C3)cc2)cc1` (stereo partly drawn) [Example 58, 3-(4-Ethynylphenyl)-4-methyl-2-(4-((S)-2-((R)-3-methylpyrrolidin-1-yl)propoxy)phenyl)-2H-chromen-6-ol]: in experiment [1], the “MCF7 Viability Assay Max Response” value is “++ (++ = a single % value ≧50%)” and the IC50 was greater than 1 nM. For the same compound, in experiment [2], the Emax was no less than 65% and the DC50 was greater than 1 nM. Further, in experiment [3], the Emax fell in the range of 60 to 85% and the DC50 was no more than 1 nM.

As to `CC1=C(c2cccc(O)c2)C(c2ccc(OCCn3cccc3)cc2)Oc2ccc(O)cc21` (stereo not drawn) [Example 14, 3-(3-Hydroxyphenyl)-4-methyl-2-(4-(2-pyrrolylethoxy)phenyl)-2H-chromen-6-ol], in experiment [1], the “MCF7 Viability Assay Max Response” value is “+ (+ = a single % value <50%)” and the IC50 is no more than 1 nM. Further, in experiment [2], the Emax lay within 40 to 65% and the DC50 is no more than 1 nM. In addition, in experiment [3], the Emax lay within 60 to 85% and the DC50 was no more than 1 nM.

In the case of `CNCCOc1ccc(C2Oc3ccc(O)cc3C(C)=C2c2cccc(O)c2)cc1` (stereo not drawn) [Example 3, 3-(3-Hydroxyphenyl)-4-methyl-2-(4-(2-(methylamino)ethoxy)phenyl)-2H-chromen-6-ol], in experiment [1], the “MCF7 Viability Assay Max Response” value was “++ (++ = a single % value ≧50%)” and the IC50 was no more than 1 nM. In experiment [2], the Emax was less than 40% and the DC50 was no more than 1 nM. Besides, in experiment [3], the Emax is less than 60% and the DC50 was no more than 1 nM.

As to `CC1=C(c2cccc(O)c2)C(c2ccc(OCCN3CCCCC3)cc2)Oc2ccc(O)cc21` (stereo not drawn) [Example 9, 3-(3-Hydroxyphenyl)-4-methyl-2-(4-(2-piperidylethoxy)phenyl)-2H-chromen-6-ol], in experiment [1], the “MCF7 Viability Assay Max Response” value is given as “++ (++ = a single % value ≧50%)” and the IC50 is no more than 1 nM. In experiment [2], the Emax fell in the range of 40 to 65% and the DC50 was no more than 1 nM. Moreover, in experiment [3], the Emax is 60 to 85% and the DC50 was no more than 1 nM.

Take `CC1=C(c2cccc(O)c2)C(c2ccc(NCCN3CCCC3)cc2)Oc2ccc(O)cc21` (stereo not drawn) [Example 22, 3-(3-Hydroxyphenyl)-4-methyl-2-(4-((2-(pyrrolidin-1-yl)ethyl)amino)phenyl)-2H-chromen-6-ol]: in experiment [1], the “MCF7 Viability Assay Max Response” value is listed as “+ (+ = a single % value <50%)” and the IC50 is no more than 1 nM. Also, in experiment [2], the Emax lay within 40 to 65% and the DC50 is greater than 1 nM. In addition, in experiment [3], the Emax lay in the range of 60 to 85% and the DC50 was no more than 1 nM.

With `CC1=C(c2cccc(O)c2)C(c2ccc(OCCN3CCCC3)cc2F)Oc2ccc(O)cc21` (stereo not drawn) [Example 34, 2-(2-Fluoro-4-(2-(pyrrolidin-1-yl)ethoxy)phenyl)-3-(3-hydroxyphenyl)-4-methyl-2H-chromen-6-ol], in experiment [1], the “MCF7 Viability Assay Max Response” value was “++ (++ = a single % value ≧50%)” and the IC50 was no more than 1 nM. Besides, in experiment [2], the Emax fell in the range of 40 to 65% and the DC50 was no more than 1 nM. Besides, in experiment [3], the Emax fell in the range of 60 to 85% and the DC50 is no more than 1 nM.

For the compound `CC1=C(c2ccc(O)cc2)C(c2ccc(OC[C@H](C)N3CC[C@@H](C)C3)cc2)Oc2ccc(O)cc21` (stereo partly drawn) [Example 31, 3-(4-Hydroxyphenyl)-4-methyl-2-(4-((S)-2-((R)-3-methylpyrrolidin-1-yl)propoxy)phenyl)-2H-chromen-6-ol], in experiment [1], the “MCF7 Viability Assay Max Response” value is on record as “++ (++ = a single % value ≧50%)” and the IC50 was no more than 1 nM. In experiment [2], the Emax was no less than 65% and the DC50 was no more than 1 nM. In addition, in experiment [3], the Emax was no less than 85% and the DC50 was no more than 1 nM.
